# Data: patent publication US20020082273A1, “Agents for use in the treatment of alzheimer's disease” (priority 1998, published 2002)
# Where “and” joins values, the source holds several entries; their conditions need not be identical. Equal values may be shown once. Entries after “also recorded” stand apart in the source; their conditions may differ. Read-outs that look alike come from different tables or passages of the source.
# What was measured:
# [1] = Residual metals in post-centrifugation pellets of brain homogenates (ICP-AES); assay type: biochemical, human; conditions: Table 6
# [2] = cited from earlier work; for LogK, Mg: Table 1, K=[ML]/[M][L]
# [3] = cited from earlier work; for LogK, Al: Table 1, K=[ML]/[M][L]
# [4] = cited from earlier work; for LogK, Ca: Table 1, K=[ML]/[M][L]
# [5] = cited from earlier work; for LogK, Co: Table 1, K=[ML]/[M][L]
# [6] = cited from earlier work; for LogK, Cu: K=[ML]/[M][L]
# [7] = cited from earlier work; for LogK, Fe: Table 1, K=[ML]/[M][L]
# [8] = tested on: Aβ deposits of AD-affected brain; assay: Extraction (solubilization) of Aβ from post-mortem AD brain tissue homogenates, western blot densitometry; assay type: biochemical, human
# Method: Identical regions of frontal cortex (0.5 g) from post-mortem brains of individuals with AD, as well as non-AD conditions, were homogenized in TBS, […] ±metal chelators.
# 0.5 g of prefrontal cortex was dissected and homogenized in PBS ±chelator as indicated. The homogenate was then centrifuged (100,000 g) and the supernatant removed, and a sample taken for western blot assay using anti-Aβ specific antibodies after Tricine PAGE. Densitometry was performed against synthetic peptide standards.
# Densitometry of Aβ western blots (FIGS. 19A-19C) was performed for a series of 6 AD brain samples homogenized in the presence of chelators as indicated.
# Next the ability of clioquinol to extract Aβ deposits from human brain was examined. […] Fragments of prefrontal cortex from individual post-mortem samples with the histopathological diagnosis of AD were homogenized in PBS, pH 7.4, and then pelleted after centrifugation. The pellets were then washed with agitation twice for 30 minutes, 4° C., with PBS or PBS containing clioquinol (100% =0.8 μM clioquinol). The suspension was then pelleted (10,000 g for 30 minutes) and the supernatant removed (S1) for western blot analysis using Aβ-specific antibodies (illustrated). The pellet was treated a second time in this experiment with agitation and centrifugation, and the second supernatant (S2) analysed.
# Soluble Aβ (ng/g tissue) was determined as described. Total Aβ was determined following formic acid extraction of otherwise untreated tissue.
# Suitable quantities of gray matter from each subject were minced to serve as pools of homogenous tissue. […] To obtain the soluble fraction, the homogenates were centrifuged at 100,000× g for 30 min (Beckman J180, Beckman instruments, Fullerton, California) and the supernatant collected in 1 ml aliquots and stored on ice or immediately frozen at −70° C. In each experiment, all protein was precipitated from 1 ml of supernatant from each treatment group using 1:5 ice cold 10% trichloracetic acid and pelleted in a bench top microfuge (Heraeus, Osteroder, Germany) at 10,000× g. The remaining pellet was frozen at −70° C.
# Precipitated protein was subjected to SDS polyacrylamide gel electrophoresis (SDS-PAGE) on Novex pre-cast 10-20% Tris-Tricine gels followed by Western transfer onto 0.2 μm nitrocellulose membrane (Biorad, Hercules, Calif.). […] Each gel included two or more lanes containing known quantities of synthetic Aβ which served as internal reference standards. Blot images were captured by a Relisys scanner with transparency adapter (Teco Information Systems, Taiwan, ROC) and densitometry conducted using the NIH Image 1.6 program (National Institutes for Health, USA. Modified for PC by Scion Corporation, Frederick, Md.), calibrated using a step diffusion chart. For quantitation of Aβ in brain extracts, the internal reference standards of synthetic Aβ were utilized to produce standard curves from which values were interpolated.
# [9] = cited from earlier work; for LogK, Zn: Table 1, K=[ML]/[M][L]
compound,measurement,setting,value
O=C(O)CN(CCOCCOCCN(CC(=O)O)CC(=O)O)CC(=O)O [EGTA],Residual Al in extracted pellet,[1]; chelator 0.001 mM,43 mg/kg
same,Residual Ca in extracted pellet,[1]; chelator 0.001 mM,862 mg/kg
same,Residual Cu in extracted pellet,[1]; chelator 0.001 mM,12 mg/kg
same,Residual Fe in extracted pellet,[1]; chelator 0.001 mM,281 mg/kg
same,Residual Mg in extracted pellet,[1]; chelator 0.001 mM,237 mg/kg
same,Residual Zn in extracted pellet,[1]; chelator 0.001 mM,49 mg/kg
same,Residual Al in extracted pellet,[1]; chelator 0.004 mM,73 mg/kg
same,Residual Ca in extracted pellet,[1]; chelator 0.004 mM,795 mg/kg
same,Residual Cu in extracted pellet,[1]; chelator 0.004 mM,11 mg/kg
same,Residual Fe in extracted pellet,[1]; chelator 0.004 mM,247 mg/kg
same,Residual Mg in extracted pellet,[1]; chelator 0.004 mM,228 mg/kg
same,Residual Zn in extracted pellet,[1]; chelator 0.004 mM,53 mg/kg
same,Residual Al in extracted pellet,[1]; chelator 0.01 mM,61 mg/kg
same,Residual Ca in extracted pellet,[1]; chelator 0.01 mM,675 mg/kg
same,Residual Cu in extracted pellet,[1]; chelator 0.01 mM,13 mg/kg
same,Residual Fe in extracted pellet,[1]; chelator 0.01 mM,272 mg/kg
same,Residual Mg in extracted pellet,[1]; chelator 0.01 mM,213 mg/kg
same,Residual Zn in extracted pellet,[1]; chelator 0.01 mM,54 mg/kg
same,Residual Al in extracted pellet,[1]; chelator 0.04 mM,104 mg/kg
same,Residual Ca in extracted pellet,[1]; chelator 0.04 mM,1402 mg/kg
same,Residual Cu in extracted pellet,[1]; chelator 0.04 mM,13 mg/kg
same,Residual Fe in extracted pellet,[1]; chelator 0.04 mM,438 mg/kg
same,Residual Mg in extracted pellet,[1]; chelator 0.04 mM,247 mg/kg
same,Residual Zn in extracted pellet,[1]; chelator 0.04 mM,71 mg/kg
same,Residual Al in extracted pellet,[1]; chelator 2.0 mM,62 mg/kg
same,Residual Ca in extracted pellet,[1]; chelator 2.0 mM,519 mg/kg
same,Residual Cu in extracted pellet,[1]; chelator 2.0 mM,13 mg/kg
same,Residual Fe in extracted pellet,[1]; chelator 2.0 mM,238 mg/kg
same,Residual Mg in extracted pellet,[1]; chelator 2.0 mM,191 mg/kg
same,Residual Zn in extracted pellet,[1]; chelator 2.0 mM,27 mg/kg
same,Residual Al in extracted pellet,[1]; chelator 5.0 mM,27 mg/kg
same,Residual Ca in extracted pellet,[1]; chelator 5.0 mM,455 mg/kg
same,Residual Cu in extracted pellet,[1]; chelator 5.0 mM,12 mg/kg
same,Residual Fe in extracted pellet,[1]; chelator 5.0 mM,230 mg/kg
same,Residual Mg in extracted pellet,[1]; chelator 5.0 mM,168 mg/kg
same,Residual Zn in extracted pellet,[1]; chelator 5.0 mM,18 mg/kg
same,"LogK, Mg",[2],5.3
same,"Stability constant logK10, Mg","[2]; Table 5, NIST database",5.28
same,"LogK, Al",[3],13.9
same,"Stability constant logK10, Al","[3]; Table 5, NIST database",13.9
same,"LogK, Ca",[4],10.9
same,"Stability constant logK10, Ca","[4]; Table 5, NIST database",10.86
same,"LogK, Co",[5],12.4
same,"Stability constant logK10, Co","[5]; Table 5, NIST database",12.35
same,"LogK, Cu",[6]; Table 1,17.6
same,"Stability constant logK10, Cu","[6]; Table 5, NIST database",17.57
same,"LogK, Fe",[7],11.8
same,"Stability constant logK10, Fe","[7]; Table 5, NIST database",11.8
same,Effect of Chelators upon extraction of Aβ (% change from control),"[8]; 0.1 mM chelator, mean n = 6 AD brain samples, above PBS extraction alone",207%
same,Effect of Chelators upon extraction of Aβ (% change from control),"[8]; 2.0 mM chelator, mean n = 6 AD brain samples, above PBS extraction alone",46%
same,Aβ signal versus PBS control,[8]; EGTA 2 mM,virtually abolished the signal for Aβ; also recorded: diminution in Aβ signal
same,efficiency in extracting Aβ,"[8]; neutral saline buffer, TPEN 5 μM",less efficient
same,"LogK, Zn",[9],12.6
same,"Stability constant logK10, Zn","[9]; Table 5, NIST database",12.6
bathocuproinedisulfonic acid [BC],"LogK, Mg",[2],0
same,"LogK, Al",[3],0
same,"LogK, Ca",[4],0
same,"LogK, Co",[5],4.2
same,"LogK, Cu (Cu^+)","[6]; Table 1, value for Cu^+",19.1
same,"LogK, Fe",[7],0
same,Effect of Chelators upon extraction of Aβ (% change from control),[8],301% and 400%
same,efficiency in extracting Aβ,[8],highly efficient
same,"LogK, Zn",[9],4.1
c1ccc(-c2ccnc3c2ccc2c(-c4ccccc4)ccnc23)cc1 [Bathophenanthroline],"LogK, Mg",[2],0
same,"LogK, Al",[3],0
same,"LogK, Ca",[4],0
same,"LogK, Co",[5],0
same,"LogK, Cu",[6]; Table 1,8.8
same,"LogK, Fe",[7],5.6
same,"LogK, Zn",[9],6.9
"O=C(O)CN(CCN(CC(=O)O)CC(=O)O)CCN(CC(=O)O)CC(=O)O [DTPA, diethylenetriaminopenta acetic acid]",log stability constant,"[6]; FIG. 34C legend, metal not given, Cu^2+ implied",21.1
CC(C)(S)[C@@H](N)C(=O)O [Penicillamine],"LogK, Mg",[2],0
same,"LogK, Al",[3],0
same,"LogK, Ca",[4],0
same,"LogK, Co",[5],0
same,"LogK, Cu",[6]; Table 1,18.2
same,"LogK, Fe",[7],0
same,"LogK, Zn",[9],10.2
